Reference: US6642392B1 (priority 1997, dated 2003)
Where two headings read alike, the source gives them in different places.

Experiments:
Type in all cases: in vivo
Phytophthora infestans = settings: for Test D disease control rating: tomato late blight; for Test D disease control rating (100 = 100% disease control, 0 = no disease control): tomato seedlings sprayed to run-off, inoculated the following day, rating relative to controls, unmarked compounds (standard test rate)
Pyricularia oryzae = settings: for Test C disease control rating: rice blast; for Test C disease control rating (100 = 100% disease control, 0 = no disease control): rice seedlings sprayed to run-off, inoculated the following day, rating relative to controls, unmarked compounds (standard test rate)
Botrytis cinerea = test: Test E: gray mold, preventive spray on cucumber seedlings; settings: for Test E disease control rating: gray mold on cucumber; for Test E disease control rating (100 = 100% disease control, 0 = no disease control): cucumber seedlings sprayed to run-off, inoculated the following day, rating relative to controls, unmarked compounds (standard test rate)
Procedure, shortened: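 Compounds in 3% acetone were suspended with 250 ppm Trem 014 surfactant and sprayed to run-off on cucumber seedlings. B. cinerea spores were inoculated next day, then 48 h saturated humidity at 20° C and 5 days at 20° C. Disease control rated 0–100% versus controls.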

Puccinia recondita = test: Test B: wheat leaf rust, preventive spray on wheat seedlings; settings: for Test B disease control rating: wheat leaf rust; for Test B disease control rating (100 = 100% disease control, 0 = no disease control): wheat seedlings sprayed to run-off, inoculated the following day, rating relative to controls, unmarked compounds (standard test rate)
Procedure, shortened: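 Wheat seedlings were sprayed to run-off with compound (3% acetone, 250 ppm Trem 014), then inoculated with P. recondita spores the next day. They were held 24 h saturated at 20 °C, then 6 days at 20 °C. Ratings are 0–100% disease control versus controls.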

[1] = tested on: Eiysiphe graminis f. sp. tritici; test: Test A: wheat powdery mildew, preventive spray on wheat seedlings; settings: for Test A disease control rating: wheat powdery mildew; for Test A disease control rating (100 = 100% disease control, 0 = no disease control): wheat seedlings sprayed to run-off, inoculated the following day, rating relative to controls, unmarked compounds (standard test rate)
Procedure, shortened: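 Compounds (3% acetone, 250 ppm Trem 014) sprayed to run-off on wheat seedlings, inoculated next day with spore dust. Incubated 7 days at 20° C before disease rating, 0–100% control relative to untreated controls.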

[2] = 100 = 100% disease control, 0 = no control, unmarked entries (standard test concentration)
[3] = 100 = 100% disease control, 0 = no control relative to controls, unmarked entries (standard test concentration)

| SMILES | Test D disease control rating (100 = 100% disease control, 0 = no disease control) (Phytophthora infestans) | Test C disease control rating (100 = 100% disease control, 0 = no disease control) (Pyricularia oryzae) | Test E disease control rating (100 = 100% disease control, 0 = no disease control) (Botrytis cinerea) | Test B disease control rating (100 = 100% disease control, 0 = no disease control) (Puccinia recondita) | Test A disease control rating (100 = 100% disease control, 0 = no disease control) [1] | Test D disease control rating (Phytophthora infestans; [2]) | Test C disease control rating (Pyricularia oryzae; [2]) | Test E disease control rating (Botrytis cinerea; [2]) | Test B disease control rating (Puccinia recondita; [2]) | Test A disease control rating [1, 3] | also measured |
| --- | --- | --- | --- | --- | --- | --- | --- | --- | --- | --- | --- |
| CCC1(C(=O)NC(C)COc2cc(F)c(F)cc2F)C(C)C1(Cl)Cl (stereo not shown) [compound 110] | – | – | – | – | – | – | – | – | – | – | Test D disease control rating (Phytophthora infestans; tested at 40 ppm): 0%; Test C disease control rating (Pyricularia oryzae; tested at 40 ppm): 97%; Test E disease control rating (Botrytis cinerea; tested at 40 ppm): 0%; Test B disease control rating (Puccinia recondita; tested at 40 ppm): 0%; Test A disease control rating ([1]; tested at 40 ppm): 90% |
| CCC1(C(=O)NC(C)COc2cc(C(C)(C)C)ccc2C#N)C(C)C1(Cl)Cl (stereo not shown) [compound 248] | 62% | 90% | 83% | 0% | 53% | – | – | – | – | – | – |
| Cc1cccc(C#N)c1OCC(C)NC(=O)C(C#N)C(C)C(C)(C)C (mixture of isomers) [compound 280] | 0% | 74% | 0% | 0% | 56% | – | – | – | – | – | – |
| CCC(C)c1ccccc1OCC(C)NC(=O)C(C#N)C(C)(C)C (mixture of isomers) [compound 306] | 0% | 99% | 94% | 67% | 0% | – | – | – | – | – | – |
| CCC1(C(=O)NC(C)COc2cccc(I)c2C#N)C(C)C1(Cl)Cl (mixture of isomers) [compound 132] | – | – | – | – | – | 2% | 0% | 0% | 0% | 0% | – |
| CC(C)(C)C(C#N)C(=O)NC/C=C/c1cccc(Br)c1 (racemic) [compound 272] | 63% | 53% | 0% | 0% | 76% | – | – | – | – | – | – |
| C[C@H](COc1cc(Cl)cc(Cl)c1)NC(=O)C(C#N)C(C)(C)C (single isomer, unassigned) [35b] | – | – | – | – | – | 0% | 91% | 0% | 0% | 37% | – |
| C[C@H](COc1ccc(F)cc1F)NC(=O)C(C#N)C(C)(C)C (single isomer, unassigned) [27a] | – | – | – | – | – | 81% | 100% | 0% | 0% | 38% | – |
| CC(COc1c(Cl)cccc1C#N)NC(=O)C(C#N)C(C)C(C)(C)C (mixture of isomers) [compound 281] | 0% | 53% | 0% | 0% | 56% | – | – | – | – | – | – |
| C[C@H](COc1cc(F)cc(F)c1)NC(=O)C(C#N)C(C)(C)C (single isomer, unassigned) [184b] | – | – | – | – | – | 9% | 74% | 45% | 0% | 62% | – |
| CC(C(C#N)C(=O)NCC=Cc1cccc(Br)c1)C(C)(C)C (mixture of isomers) [compound 76] | – | – | – | – | – | – | – | – | – | – | Test D disease control rating (Phytophthora infestans; tested at 40 ppm): 19%; Test C disease control rating (Pyricularia oryzae; tested at 40 ppm): 0%; Test E disease control rating (Botrytis cinerea; tested at 40 ppm): 0%; Test B disease control rating (Puccinia recondita; tested at 40 ppm): 0%; Test A disease control rating ([1]; tested at 40 ppm): 0% |
| C[C@H](COc1ccc(F)c(F)c1)NC(=O)C(C#N)C(C)(C)C (single isomer, unassigned) [30b] | – | – | – | – | – | 0% | 97% | 0% | 27% | 77% | – |
| Cc1cccc(C#N)c1OCC(C)NC(=O)C(C#N)C(C)(C)C (mixture of isomers) [compound 209] | – | – | – | – | – | 0% | 86% | 0% | 0% | 0% | – |
| CCC1(C(=O)NC(C)COc2c(Cl)cc(Cl)cc2Cl)C(C)C1(Cl)Cl (stereo not shown) [compound 118] | – | – | – | – | – | – | – | – | – | – | Test D disease control rating (Phytophthora infestans; tested at 40 ppm): 0%; Test C disease control rating (Pyricularia oryzae; tested at 40 ppm): 0%; Test E disease control rating (Botrytis cinerea; tested at 40 ppm): 0%; Test B disease control rating (Puccinia recondita; tested at 40 ppm): 0%; Test A disease control rating ([1]; tested at 40 ppm): 83% |
| CC(COc1cccc(Cl)c1)NC(=O)C(C#N)C(C)(C)C (single isomer, unassigned) [6a] | – | – | – | – | – | 0% | 74% | 0% | 0% | 0% | – |
| C[C@H](COc1cccc(F)c1F)NC(=O)C(C#N)C(C)(C)C (single isomer, unassigned) [26a] | – | – | – | – | – | 51% | 97% | 0% | 28% | 38% | – |
| C=CCc1ccccc1OCC(C)NC(=O)C1(C)CC1(Cl)Cl (mixture of isomers) [compound 314] | 0% | 72% | 0% | 0% | 0% | – | – | – | – | – | – |
| C=CCc1ccccc1OCC(C)NC(=O)C1(CC)C(C)C1(Cl)Cl (stereo not shown) [101b] | – | – | – | – | – | – | – | – | – | – | Test D disease control rating (Phytophthora infestans; tested at 40 ppm): 0%; Test C disease control rating (Pyricularia oryzae; tested at 40 ppm): 0%; Test E disease control rating (Botrytis cinerea; tested at 40 ppm): 0%; Test B disease control rating (Puccinia recondita; tested at 40 ppm): 0%; Test A disease control rating ([1]; tested at 40 ppm): 0% |
| CC(COc1ccccc1Br)NC(=O)C1(C)CC1(Cl)Cl (mixture of isomers) [compound 313] | 32% | 26% | 47% | 0% | 0% | – | – | – | – | – | – |
| CCC1(C(=O)NC(C)COc2c(F)ccc(F)c2C#N)C(C)C1(Cl)Cl (mixture of isomers) [compound 258] | 0% | 94% | 0% | 27% | 74% | – | – | – | – | – | – |
| C=CCC(C#N)C(=O)NC(C)C(Oc1ccccc1C#N)c1ccccc1 (mixture of isomers) [compound 285] | 0% | 97% | 0% | 0% | 59% | – | – | – | – | – | – |
| CCC1(C(=O)NC(C)COc2ccccc2C(C)(C)C)C(C)C1(Cl)Cl (stereo not shown) [compound 100] | – | – | – | – | – | – | – | – | – | – | Test D disease control rating (Phytophthora infestans; tested at 40 ppm): 0%; Test C disease control rating (Pyricularia oryzae; tested at 40 ppm): 0%; Test E disease control rating (Botrytis cinerea; tested at 40 ppm): 0%; Test B disease control rating (Puccinia recondita; tested at 40 ppm): 0%; Test A disease control rating ([1]; tested at 40 ppm): 52% |
| C[C@H](COc1cc(F)cc(F)c1Cl)NC(=O)C(C#N)C(C)(C)C (single isomer, unassigned) [169b] | – | – | – | – | – | 0% | 97% | 0% | 0% | 0% | – |
| C=CC(C)(CC)C(C#N)C(=O)NC(C)COc1cc(F)ccc1F (mixture of isomers) [compound 296] | 24% | 100% | 0% | 0% | 0% | – | – | – | – | – | – |
| CC(C)(C)C(C#N)C(=O)NC/C=C/c1ccccc1Cl (racemic) [compound 179] | – | – | – | – | – | 23% | 74% | 58% | 0% | 35% | – |
| CCCc1ccccc1OCC(C)NC(=O)C1(CC)C(C)C1(Cl)Cl (mixture of isomers) [98a] | – | – | – | – | – | 24% | 53% | 0% | 0% | 0% | – |
